According to patent publication US20230293407A1, “Compositions Comprising (Bio)-Alkanediols with Antimicrobials for Product Protection” (Symrise AG, priority 2020, published 2023):

Experiments:
Assay in all cases: preservation efficacy test (PET), European Pharmacopoeia 5.1.3
Format in all cases: cell-based
Pseudomonas aeruginosa = conditions: for count at 7 days / count at 14 days / count at 28 days / count at 2 days: PA, use concentration in label
Escherichia coli = conditions: for count at 7 days / count at 14 days / count at 28 days / count at 2 days: EC, use concentration in label
Staphylococcus aureus = conditions: for count at 7 days / count at 14 days / count at 28 days / count at 2 days: SA, use concentration in label
Candida albicans = conditions: for CA germ count, 2 days: 2 days after inoculation; for CA germ count, 2 days / CA germ count, 7 days / CA germ count, 14 days / CA germ count, 28 days: substance at given % in test formulation; for count at 28 days / count at 14 days / count at 7 days: CA, use concentration in label
[1] = in wet wipes, 14 days after inoculation
[2] = in wet wipes, 28 days after inoculation
[3] = in wet wipes, 2 days after inoculation
[4] = in wet wipes, 7 days after inoculation
[5] = 14 days after inoculation, substance at given % in test formulation
[6] = 28 days after inoculation, substance at given % in test formulation
[7] = 2 days after inoculation, substance at given % in test formulation
[8] = 7 days after inoculation, substance at given % in test formulation
[9] = 7 days after inoculation, o/w emulsion (Table 53)
[10] = 14 days after inoculation, o/w emulsion (Table 53)
[11] = 28 days after inoculation, o/w emulsion (Table 53)
[12] = 2 days after inoculation, o/w emulsion (Table 53)

CCCCCCC(O)CO (stereo not shown) [0.1% 1,2-octanediol]
PA germ count, 14 days (Pseudomonas aeruginosa; [1]): 750.000
PA germ count, 28 days (Pseudomonas aeruginosa; [2]): 350.000
EC germ count, 28 days (Escherichia coli; [2]): 2.300
SA germ count, 2 days (Staphylococcus aureus; [3]): 425
SA germ count, 7 days (Staphylococcus aureus; [4]): 50
SA germ count, 14 days (Staphylococcus aureus; [1]): 50
SA germ count, 28 days (Staphylococcus aureus; [2]): 50

CCCCCC(O)C(C)O (stereo not shown) [0.1% 2,3-Octanediol]
PA germ count, 14 days (Pseudomonas aeruginosa; [5]): 1
PA germ count, 28 days (Pseudomonas aeruginosa; [6]): 1
EC germ count, 2 days (Escherichia coli; [7]): 690.000
EC germ count, 7 days (Escherichia coli; [8]): 11.000
EC germ count, 14 days (Escherichia coli; [5]): 1.200
EC germ count, 28 days (Escherichia coli; [6]): 1
SA germ count, 7 days (Staphylococcus aureus; [8]): 9.500
SA germ count, 14 days (Staphylococcus aureus; [5]): 1
SA germ count, 28 days (Staphylococcus aureus; [6]): 1

CCCCCC(O)C(C)O (stereo not shown) [0.1% 2,3-octanediol]
PA germ count, 7 days (Pseudomonas aeruginosa; [4]): 630.000
PA germ count, 14 days (Pseudomonas aeruginosa; [1]): 310.000
PA germ count, 28 days (Pseudomonas aeruginosa; [2]): 27.000
EC germ count, 14 days (Escherichia coli; [1]): 850.000
EC germ count, 28 days (Escherichia coli; [2]): 1.600
SA germ count, 2 days (Staphylococcus aureus; [3]): 50
SA germ count, 7 days (Staphylococcus aureus; [4]): 50
SA germ count, 14 days (Staphylococcus aureus; [1]): 50
SA germ count, 28 days (Staphylococcus aureus; [2]): 50

CCCCCCCC(=O)OCC(O)CO (stereo not shown) [0.1% glyceryl caprylate]
CA germ count, 2 days (Candida albicans): 990.000
CA germ count, 7 days (Candida albicans; 7 days after inoculation): 690.000
CA germ count, 14 days (Candida albicans; 14 days after inoculation): 280.000
CA germ count, 28 days (Candida albicans; 28 days after inoculation): 220.000
PA germ count, 2 days (Pseudomonas aeruginosa; [7]): 1.800
PA germ count, 7 days (Pseudomonas aeruginosa; [8]): 690
PA germ count, 14 days (Pseudomonas aeruginosa; [5]): 2.400
PA germ count, 28 days (Pseudomonas aeruginosa; [6]): 39.000
EC germ count, 2 days (Escherichia coli; [7]): 1
EC germ count, 7 days (Escherichia coli; [8]): 1
EC germ count, 14 days (Escherichia coli; [5]): 1
EC germ count, 28 days (Escherichia coli; [6]): 1
SA germ count, 2 days (Staphylococcus aureus; [7]): 15.000
SA germ count, 7 days (Staphylococcus aureus; [8]): 1
SA germ count, 14 days (Staphylococcus aureus; [5]): 1
SA germ count, 28 days (Staphylococcus aureus; [6]): 1

Cc1cc(O)ccc1C(C)C [0.1% o-Cymen-5-ol]
count at 28 days (Candida albicans; 28 days after inoculation): 690.000
count at 7 days (Pseudomonas aeruginosa; 7 days after inoculation): 250.000
count at 14 days (Pseudomonas aeruginosa; 14 days after inoculation): 900.000
count at 28 days (Pseudomonas aeruginosa; 28 days after inoculation): 460.000
count at 7 days (Escherichia coli; 7 days after inoculation): 270.000
count at 14 days (Escherichia coli; 14 days after inoculation): 270.000
count at 28 days (Escherichia coli; 28 days after inoculation): 51.000
count at 7 days (Staphylococcus aureus; 7 days after inoculation): 18.000
count at 14 days (Staphylococcus aureus; 14 days after inoculation): 1
count at 28 days (Staphylococcus aureus; 28 days after inoculation): 1

CCCCCCC(O)CO (stereo not shown) [0.2% 1,2-octanediol]
CA germ count, 2 days (Candida albicans): 950.000
CA germ count, 7 days (Candida albicans; 7 days after inoculation): 15.000
CA germ count, 14 days (Candida albicans; 14 days after inoculation): 36
CA germ count, 28 days (Candida albicans; 28 days after inoculation): 1
PA germ count, 2 days (Pseudomonas aeruginosa; [7]): 1
PA germ count, 7 days (Pseudomonas aeruginosa; [8]): 1
PA germ count, 14 days (Pseudomonas aeruginosa; [5]): 1
PA germ count, 28 days (Pseudomonas aeruginosa; [6]): 1
EC germ count, 2 days (Escherichia coli; [7]): 1
EC germ count, 7 days (Escherichia coli; [8]): 1
EC germ count, 14 days (Escherichia coli; [5]): 1
EC germ count, 28 days (Escherichia coli; [6]): 1
SA germ count, 2 days (Staphylococcus aureus; [7]): 1
SA germ count, 7 days (Staphylococcus aureus; [8]): 1
SA germ count, 14 days (Staphylococcus aureus; [5]): 1
SA germ count, 28 days (Staphylococcus aureus; [6]): 1

CCCCCC(O)CO (stereo not shown) [0.2% 1.2-heptanediol]
CA germ count, 28 days (Candida albicans; 28 days after inoculation): 310.000
EC germ count, 2 days (Escherichia coli; [7]): 780.000
EC germ count, 7 days (Escherichia coli; [8]): 83.000
EC germ count, 14 days (Escherichia coli; [5]): 11.000
EC germ count, 28 days (Escherichia coli; [6]): 180
SA germ count, 2 days (Staphylococcus aureus; [7]): 12.000
SA germ count, 7 days (Staphylococcus aureus; [8]): 1

CCCCCCC(O)C(C)O (stereo not shown) [0.2% 2,3 Nonanediol]
germ count CA, 7 days (Candida albicans; [9]): 440.000
germ count CA, 14 days (Candida albicans; [10]): 160.000
germ count CA, 28 days (Candida albicans; [11]): 3.800
germ count PA, 2 days (Pseudomonas aeruginosa; [12]): 1
germ count PA, 7 days (Pseudomonas aeruginosa; [9]): 1
germ count PA, 14 days (Pseudomonas aeruginosa; [10]): 1
germ count PA, 28 days (Pseudomonas aeruginosa; [11]): 1
germ count EC, 2 days (Escherichia coli; [12]): 860.000
germ count EC, 7 days (Escherichia coli; [9]): 230.000
germ count EC, 14 days (Escherichia coli; [10]): 760
germ count EC, 28 days (Escherichia coli; [11]): 1
germ count SA, 2 days (Staphylococcus aureus; [12]): 880
germ count SA, 7 days (Staphylococcus aureus; [9]): 1
germ count SA, 14 days (Staphylococcus aureus; [10]): 1
germ count SA, 28 days (Staphylococcus aureus; [11]): 1

CCCCCCCC(=O)OCC(O)CO (stereo not shown) [0.2% glyceryl caprylate]
CA germ count, 2 days (Candida albicans): 12.000
CA germ count, 7 days (Candida albicans; 7 days after inoculation): 260
CA germ count, 14 days (Candida albicans; 14 days after inoculation): 1
CA germ count, 28 days (Candida albicans; 28 days after inoculation): 1
PA germ count, 2 days (Pseudomonas aeruginosa; [7]): 1
PA germ count, 7 days (Pseudomonas aeruginosa; [8]): 1
PA germ count, 14 days (Pseudomonas aeruginosa; [5]): 1
PA germ count, 28 days (Pseudomonas aeruginosa; [6]): 1
EC germ count, 2 days (Escherichia coli; [7]): 1
EC germ count, 7 days (Escherichia coli; [8]): 1
EC germ count, 14 days (Escherichia coli; [5]): 1
EC germ count, 28 days (Escherichia coli; [6]): 1
SA germ count, 2 days (Staphylococcus aureus; [7]): 1
SA germ count, 7 days (Staphylococcus aureus; [8]): 1
SA germ count, 14 days (Staphylococcus aureus; [5]): 1
SA germ count, 28 days (Staphylococcus aureus; [6]): 1

CCCCCC(O)CO (stereo not shown) [0.3% 1.2-heptanediol]
count at 14 days (Candida albicans; 14 days after inoculation): 260.000
count at 28 days (Candida albicans; 28 days after inoculation): 150.000
count at 2 days (Pseudomonas aeruginosa; 2 days after inoculation): 1
count at 7 days (Pseudomonas aeruginosa; 7 days after inoculation): 1
count at 14 days (Pseudomonas aeruginosa; 14 days after inoculation): 1
count at 28 days (Pseudomonas aeruginosa; 28 days after inoculation): 1
count at 2 days (Escherichia coli; 2 days after inoculation): 130.000
count at 7 days (Escherichia coli; 7 days after inoculation): 2.400
count at 14 days (Escherichia coli; 14 days after inoculation): 1
count at 28 days (Escherichia coli; 28 days after inoculation): 1
count at 2 days (Staphylococcus aureus; 2 days after inoculation): 16.000
count at 7 days (Staphylococcus aureus; 7 days after inoculation): 1
count at 14 days (Staphylococcus aureus; 14 days after inoculation): 1
count at 28 days (Staphylococcus aureus; 28 days after inoculation): 1

CC(C)=CCC/C(C)=C/CC/C(C)=C/CO [0.3% farnesol]
count at 7 days (Candida albicans; 7 days after inoculation): 880.000
count at 2 days (Pseudomonas aeruginosa; 2 days after inoculation): 460.000
count at 7 days (Pseudomonas aeruginosa; 7 days after inoculation): 380.000
count at 14 days (Pseudomonas aeruginosa; 14 days after inoculation): 610.000
count at 28 days (Pseudomonas aeruginosa; 28 days after inoculation): 65.000
count at 7 days (Escherichia coli; 7 days after inoculation): 390.000
count at 14 days (Escherichia coli; 14 days after inoculation): 12.000
count at 28 days (Escherichia coli; 28 days after inoculation): 1.000
count at 2 days (Staphylococcus aureus; 2 days after inoculation): 720.000
count at 7 days (Staphylococcus aureus; 7 days after inoculation): 52.000
count at 14 days (Staphylococcus aureus; 14 days after inoculation): 100.000
count at 28 days (Staphylococcus aureus; 28 days after inoculation): 33.000

CCCCCC(O)CO (stereo not shown) [0.4 % 1,2-heptanediol]
count at 7 days (Candida albicans; 7 days after inoculation): 39.000
count at 14 days (Candida albicans; 14 days after inoculation): 590
count at 28 days (Candida albicans; 28 days after inoculation): 27
count at 2 days (Pseudomonas aeruginosa; 2 days after inoculation): 1
count at 7 days (Pseudomonas aeruginosa; 7 days after inoculation): 1
count at 14 days (Pseudomonas aeruginosa; 14 days after inoculation): 1
count at 28 days (Pseudomonas aeruginosa; 28 days after inoculation): 1
count at 2 days (Escherichia coli; 2 days after inoculation): 140
count at 7 days (Escherichia coli; 7 days after inoculation): 1
count at 14 days (Escherichia coli; 14 days after inoculation): 1
count at 28 days (Escherichia coli; 28 days after inoculation): 1
count at 2 days (Staphylococcus aureus; 2 days after inoculation): 1
count at 7 days (Staphylococcus aureus; 7 days after inoculation): 1
count at 14 days (Staphylococcus aureus; 14 days after inoculation): 1
count at 28 days (Staphylococcus aureus; 28 days after inoculation): 1

CCCCC(O)C(C)O (stereo not shown) [0.4% 2,3 Heptandiol]
count at 14 days (Candida albicans; 14 days after inoculation): 39.000
count at 28 days (Candida albicans; 28 days after inoculation): 76.000
count at 2 days (Pseudomonas aeruginosa; 2 days after inoculation): 1
count at 7 days (Pseudomonas aeruginosa; 7 days after inoculation): 1
count at 14 days (Pseudomonas aeruginosa; 14 days after inoculation): 1
count at 28 days (Pseudomonas aeruginosa; 28 days after inoculation): 1
count at 7 days (Escherichia coli; 7 days after inoculation): 1
count at 14 days (Escherichia coli; 14 days after inoculation): 1
count at 28 days (Escherichia coli; 28 days after inoculation): 1
count at 7 days (Staphylococcus aureus; 7 days after inoculation): 1
count at 14 days (Staphylococcus aureus; 14 days after inoculation): 1
count at 28 days (Staphylococcus aureus; 28 days after inoculation): 1

CC(C)(C)C(=O)C(Oc1ccc(Cl)cc1)n1ccnc1 (stereo not shown) [0.4% Climbazole]
count at 14 days (Candida albicans; 14 days after inoculation): 760.000
count at 28 days (Candida albicans; 28 days after inoculation): 72.000
count at 28 days (Pseudomonas aeruginosa; 28 days after inoculation): 940.000
count at 2 days (Escherichia coli; 2 days after inoculation): 940.000
count at 7 days (Escherichia coli; 7 days after inoculation): 810.000
count at 14 days (Escherichia coli; 14 days after inoculation): 690
count at 28 days (Escherichia coli; 28 days after inoculation): 1
count at 2 days (Staphylococcus aureus; 2 days after inoculation): 340.000
count at 7 days (Staphylococcus aureus; 7 days after inoculation): 1
count at 14 days (Staphylococcus aureus; 14 days after inoculation): 1
count at 28 days (Staphylococcus aureus; 28 days after inoculation): 1
